# ChEMBL document CHEMBL4265957, “The development of piperidinones as potent MDM2-P53 protein-protein interaction inhibitors for cancer therapy” (Eur J Med Chem, 2018)
# Experiments:
# [1] = target: E3 ubiquitin-protein ligase Mdm2 (Homo sapiens, UniProt Q00987); experiment: Inhibition of MDM2 (unknown origin)
# [2] = tested on: SJSA-1; experiment: cells; settings: Homo sapiens
# E3 ubiquitin-protein ligase Mdm2, sequence (Q00987 whole entry): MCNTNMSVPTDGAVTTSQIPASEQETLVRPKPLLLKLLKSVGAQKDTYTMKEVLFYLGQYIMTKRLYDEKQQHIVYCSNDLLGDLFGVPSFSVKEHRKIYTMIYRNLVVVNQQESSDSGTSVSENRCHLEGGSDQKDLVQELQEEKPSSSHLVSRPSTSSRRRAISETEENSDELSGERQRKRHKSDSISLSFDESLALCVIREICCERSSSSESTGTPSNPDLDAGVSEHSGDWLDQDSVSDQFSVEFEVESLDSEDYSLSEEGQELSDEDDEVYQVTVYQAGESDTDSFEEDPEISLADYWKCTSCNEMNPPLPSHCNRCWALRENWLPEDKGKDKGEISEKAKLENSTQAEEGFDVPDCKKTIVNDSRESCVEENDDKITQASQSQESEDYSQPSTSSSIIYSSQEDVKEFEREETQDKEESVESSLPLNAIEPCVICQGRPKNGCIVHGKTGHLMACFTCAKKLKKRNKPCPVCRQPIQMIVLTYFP
IC50 [1] [nM],IC50 [2] [nM],SMILES
5.57,,CC1(C)CCC2(CC1)N[C@@H](C(=O)N[C@@H]1CC[C@@H](C(N)=O)OC1)[C@H](c1ccnc(Cl)c1F)[C@]21C(=O)Nc2cc(Cl)ccc21
,5,CN(C[C@H](C1CC1)N1C(=O)[C@@](C)(CC(=O)O)C[C@H](c2cccc(Cl)c2)[C@H]1c1ccc(Cl)cc1)S(=O)(=O)C1CC1
20,,Nc1ccn([C@@H]2O[C@H](CO)[C@@H](O)[C@@H]2O)c(=O)n1 [CYTARABINE]
